Test results: US10954214B2 (Janssen Pharmaceutica NV, priority 2016, dated 2021)
pIC50: −log10 of the molar value.

Tests used:
Jurkat cells = assay: PMA Induced IL2 Production In Jurkat Cells; assay type: cell-based; conditions: Homo sapiens, PMA/Ionomycin, 20 h, read-out: IL-2 prod h Jurkat PMA IC50
Experimental: Jurkat cells were maintained in complete RPMI 1640 media containing 10% fetal bovine serum, 10 mM HEPES, 100 units/mL of penicillin and 100 μg/mL of streptomycin. Prior to the assay, compounds were made 2- to 4-fold serial dilutions in DMSO. A volume of 10 μL of DMSO-diluted compound in each well were further diluted into 240 μL RPMI1640 complete media. Jurkat cells were harvested by centrifuge at 1200 RPM for 5 min, washed one time with RPMI 1640 media, and suspended in fresh complete RPMI 1640 media at concentration of 1.25×10^6 cell/mL. A volume of 160 uL of Jurkat cells (2×10^5 cells) were seeded in each well of 96 well plate-bottom plates. A volume of 20 uL of diluted compound in RMPI 1640 complete media were added to each well and incubated with Jurkat cells for 30 min at 37° C. in a 5% CO2 incubator. A volume 20 μL of diluted PMA/Ionomycin (81 nM/1.3 uM respectively, ebioscience, catalog number 00-4970-93) in RMPI 1640 complete media were added to each well. After incubation at 37° C. in 5% CO2 incubator for 20 h, supernatants were harvested. IL-2 concentration was assessed by ELISA (IL2 Duoset, R&D Systems, catalog number DY202). Colorimetric intensity at 450 nm was read by Spectramax plate reader and analyzed with Softmax Pro software. Cell viability was assessed by Cell Titer Glo kit (Promega, catalog number G7571) using Victor Luminescence reader (Victor 3V 4202938 by Perkin Elmer).

[1] = molecular target: full-length MALT1 protein (Strep-MALT1(1-824)-His) (Homo sapiens (Human), UniProt Q9UDY8); assay: MALT1 Biochemical Protease Assay (Ac-LRSR-AMC substrate); conditions: 10 nM FL MALT1, 200 μM Ac-LRSR-AMC, 4 h at RT; read-out: MALT1_Biochemical activity (Ac-LRSR-amc) IC50
Procedure, shortened: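 Full-length MALT1 pre-incubated with compounds (30 μM to 0.5 nM, 11 threefold steps) for 50 min at RT. After Ac-LRSR-AMC was added, the reaction ran 4 h at RT and AMC fluorescence was read. IC50 and Hill slope from curve fitting against no-enzyme and no-compound controls.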

[2] = system: IL10 secretion by TMD8 ABC-DLBCL cells; assay: Human IL10 Mesoscale assay (TMD-8); assay type: cell-based; conditions: Homo sapiens, TMD8; TMD-8 cells, 24 h
Procedure, shortened: (§1)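 Read-out: MSD electrochemiluminescence of IL6/IL10 in supernatants. Cells (100,000/well, no beta-mercaptoethanol) were exposed to compounds at 15 μM down to 58.6 nM, 1:2 dilutions, for 24 h at 37° C, 5% CO2. Normalised between DMSO (high) and RN486 (low) controls.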

TMD8 cells = assay: 4-day proliferation assay, TMD8; assay type: cell-based; conditions: Homo sapiens, 96 h, 4 days incubation, CellTiterGLO, read-out: Anti-proliferation: TMD-8 IC50
Procedure, shortened: (§2)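 TMD8 and OCI-Ly3 cells were seeded at 10,000 per well and grown 4 days at 37° C, 5% CO2 without beta-mercaptoethanol. Viability was read by CellTiter-Glo luminescence. IC50 and Hill slope were fitted relative to the low control median.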

[3] = system: IL6 secretion by TMD8 ABC-DLBCL cells; assay: Human IL6 Mesoscale assay (TMD-8); assay type: cell-based; conditions: Homo sapiens, TMD8; TMD-8 cells, 24 h
Procedure, shortened: as §1

OCI-Ly3 cells = assay: 4-day proliferation assay, OCI-Ly3; assay type: cell-based, human; conditions: Homo sapiens, 96 h, 4 days incubation, CellTiterGLO, read-out: Anti-proliferation: OCI-LY-3 IC50
Procedure, shortened: as §2

Sequence of full-length MALT1 protein (Strep-MALT1(1-824)-His) (Q9UDY8 whole entry): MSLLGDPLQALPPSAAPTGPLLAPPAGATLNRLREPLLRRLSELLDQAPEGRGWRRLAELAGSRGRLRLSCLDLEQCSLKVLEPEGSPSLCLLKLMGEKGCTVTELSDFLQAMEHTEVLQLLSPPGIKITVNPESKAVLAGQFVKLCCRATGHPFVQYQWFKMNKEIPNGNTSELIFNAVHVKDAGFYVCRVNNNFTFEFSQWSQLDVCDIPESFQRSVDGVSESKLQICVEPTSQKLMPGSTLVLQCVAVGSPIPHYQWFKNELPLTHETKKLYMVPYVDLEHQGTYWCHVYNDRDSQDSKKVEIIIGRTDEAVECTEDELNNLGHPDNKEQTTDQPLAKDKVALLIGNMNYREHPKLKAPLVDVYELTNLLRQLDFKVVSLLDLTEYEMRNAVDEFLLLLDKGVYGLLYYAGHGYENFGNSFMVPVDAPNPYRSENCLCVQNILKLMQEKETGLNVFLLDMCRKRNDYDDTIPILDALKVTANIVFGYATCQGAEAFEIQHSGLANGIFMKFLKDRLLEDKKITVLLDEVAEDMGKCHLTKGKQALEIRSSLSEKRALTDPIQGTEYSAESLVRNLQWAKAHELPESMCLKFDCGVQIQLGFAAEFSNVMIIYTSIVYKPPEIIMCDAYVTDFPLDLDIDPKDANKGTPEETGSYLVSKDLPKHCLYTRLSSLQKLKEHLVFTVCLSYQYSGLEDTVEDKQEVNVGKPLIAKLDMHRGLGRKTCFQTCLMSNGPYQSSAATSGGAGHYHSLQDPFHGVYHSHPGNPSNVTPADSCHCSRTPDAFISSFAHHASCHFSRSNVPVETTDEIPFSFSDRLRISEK

SMILES | pIC50 (Jurkat cells) | pIC50 [1] | pIC50 [2] | pIC50 (TMD8 cells) | pIC50 [3] | pIC50 (OCI-Ly3 cells)
O=C(Nc1cnc(-n2nccn2)c(Cl)c1)c1cnn(-c2cccc3ccccc23)c1C(F)(F)F [Cpd 2, N-(5-Chloro-6-(2H-1,2,3-triazol-2-yl)pyridin-3-yl)-1-(naphthalen-1-yl)-5-(trifluoromethyl)-1H-pyrazole-4-carboxamide] | 7.23 | 7.92 | 7.55 | 4.86 | 7.28 | 6.38
O=C(Nc1ccnc(C(F)(F)F)c1)c1cnn(-c2cccc3ccccc23)c1C(F)(F)F [Cpd 3, 1-(Naphthalen-1-yl)-5-(trifluoromethyl)-N-(2-(trifluoromethyl)pyridin-4-yl)-1H-pyrazole-4-carboxamide] | 6.80 | 6.72 | 6.86 | 5.02 | 6.66 | ~5.54
O=C(Nc1cncc(C(F)(F)F)c1)c1cnn(-c2cccc3ccccc23)c1C(F)(F)F [Cpd 4, 1-(Naphthalen-1-yl)-5-(trifluoromethyl)-N-(5-(trifluoromethyl)pyridin-3-yl)-1H-pyrazole-4-carboxamide] | 6.44 | 6.70 | 6.67 | ~4.80 | 6.47 | ~6.30
COc1ncc(NC(=O)c2cnn(-c3cncc4ccccc34)c2C(F)(F)F)cc1C#N [Cpd 24, N-(5-cyano-6-methoxypyridin-3-yl)-1-(isoquinolin-4-yl)-5-(trifluoromethyl)-1H-pyrazole-4-carboxamide] | 6.13 | 7.13 | 6.89 | ~5.00 | 7.03 | ~5.71
O=C(Nc1cnc(-n2nccn2)c(Cl)c1)c1cnn(-c2cccc3ncc(F)cc23)c1C(F)(F)F [Cpd 25, N-(5-Chloro-6-(2H-1,2,3-triazol-2-yl)pyridin-3-yl)-1-(3-fluoroquinolin-5-yl)-5-(trifluoromethyl)-1H-pyrazole-4-carboxamide] | 6.68 | 7.14 | – | ~4.85 | 6.76 | 5.48
CC(C)c1c(C(=O)Nc2cnc(-n3nccn3)c(Cl)c2)cnn1-c1cccc2ncccc12 [Cpd 26, N-(5-chloro-6-(2H-1,2,3-triazol-2-yl)pyridin-3-yl)-5-isopropyl-1-(quinolin-5-yl)-1H-pyrazole-4-carboxamide] | 6.10 | 6.20 | – | 5.06 | 6.24 | 5.32
Cc1ccc(-n2ncc(C(=O)Nc3cnc(-n4nccn4)c(Cl)c3)c2C(F)(F)F)c2cccnc12 [Cpd 28, N-(5-Chloro-6-(2H-1,2,3-triazol-2-yl)pyridin-3-yl)-1-(8-methylquinolin-5-yl)-5-(trifluoromethyl)-1H-pyrazole-4-carboxamide] | 6.70 | 7.17 | – | 5.18 | 6.85 | 5.82
O=C(Nc1cnc(-n2nccn2)c(Cl)c1)c1cnn(-c2cncc3ccccc23)c1C(F)(F)F [Cpd 32, N-(5-chloro-6-(2H-1,2,3-triazol-2-yl)pyridin-3-yl)-1-(isoquinolin-4-yl)-5-(trifluoromethyl)-1H-pyrazole-4-carboxamide] | 8.70 | 7.72 | 7.85 | 5.31 | 7.77 | 6.96
O=C(Nc1cnc(-n2nccn2)c(Cl)c1)c1cnn(-c2cccc3occc23)c1C(F)(F)F [Cpd 34, 1-(Benzofuran-4-yl)-N-(5-chloro-6-(2H-1,2,3-triazol-2-yl)pyridin-3-yl)-5-(trifluoromethyl)-1H-pyrazole-4-carboxamide] | 7.80 | 8.05 | 8.15 | ~4.92 | ~7.96 | ~6.66
COC(C)c1c(C(=O)Nc2cnc(-n3nccn3)c(Cl)c2)cnn1-c1cccc2ncccc12 (stereo not drawn) [Cpd 35, N-(5-Chloro-6-(2H-1,2,3-triazol-2-yl)pyridin-3-yl)-5-(1-methoxyethyl)-1-(quinolin-5-yl)-1H-pyrazole-4-carboxamide] | 5.49 | 6.09 | 5.54 | 4.96 | 5.22 | 4.97
Cc1ccc2cncc(-n3ncc(C(=O)Nc4cnc(-n5nccn5)c(Cl)c4)c3C(F)(F)F)c2c1 [Cpd 36, N-(5-Chloro-6-(2H-1,2,3-triazol-2-yl)pyridin-3-yl)-1-(6-methylisoquinolin-4-yl)-5-(trifluoromethyl)-1H-pyrazole-4-carboxamide] | 6.57 | 7.20 | 6.85 | 5.10 | 6.87 | 5.72
O=C(Nc1ccc(-n2nccn2)c(Cl)c1)c1cnn(-c2cncc3ccccc23)c1C(F)(F)F [Cpd 38, N-(3-chloro-4-(2H-1,2,3-triazol-2-yl)phenyl)-1-(isoquinolin-4-yl)-5-(trifluoromethyl)-1H-pyrazole-4-carboxamide] | 7.68 | 7.70 | 7.85 | 5.42 | 7.34 | 5.94
Cc1c(C(=O)Nc2cnc(-n3nccn3)c(Cl)c2)cnn1-c1cccc2ncccc12 [Cpd 39, N-(5-Chloro-6-(2H-1,2,3-triazol-2-yl)pyridin-3-yl)-5-methyl-1-(quinolin-5-yl)-1H-pyrazole-4-carboxamide] | 5.71 | 6.12 | 6.02 | 4.84 | 5.71 | ~5.95
O=C(Nc1cnc(-n2nccn2)c(Cl)c1)c1cnn(-c2ccc(F)c3ncccc23)c1C(F)(F)F [Cpd 40, N-(5-Chloro-6-(2H-1,2,3-triazol-2-yl)pyridin-3-yl)-1-(8-fluoroquinolin-5-yl)-5-(trifluoromethyl)-1H-pyrazole-4-carboxamide] | 7.02 | 7.32 | 7.46 | 5.21 | 7.52 | 6.82
N#Cc1ncc(NC(=O)c2cnn(-c3cncc4ccccc34)c2C(F)(F)F)cc1F [Cpd 41, N-(6-cyano-5-fluoropyridin-3-yl)-1-(isoquinolin-4-yl)-5-(trifluoromethyl)-1H-pyrazole-4-carboxamide] | 6.52 | 6.05 | 6.07 | < 4.70 | ~5.68 | 5.80
O=C(Nc1cnc(N2CCCS2(=O)=O)c(Cl)c1)c1cnn(-c2cncc3ccccc23)c1C(F)(F)F [Cpd 42, N-(5-Chloro-6-(1,1-dioxidoisothiazolidin-2-yl)pyridin-3-yl)-1-(isoquinolin-4-yl)-5-(trifluoromethyl)-1H-pyrazole-4-carboxamide] | 7.96 | 6.79 | ~6.96 | 5.21 | 6.93 | 6.25
CN1CCC(Oc2ncc(NC(=O)c3cnn(-c4cncc5ccccc45)c3C(F)(F)F)cc2Cl)CC1 [Cpd 45, N-(5-chloro-6-((1-methylpiperidin-4-yl)oxy)pyridin-3-yl)-1-(isoquinolin-4-yl)-5-(trifluoromethyl)-1H-pyrazole-4-carboxamide] | 7.14 | 6.40 | 6.69 | ~5.03 | 6.45 | 6.47
O=C(Nc1cnc(-n2cccn2)c(Cl)c1)c1cnn(-c2cncc3ccccc23)c1C(F)(F)F [Cpd 46, N-(5-Chloro-6-(1H-pyrazol-1-yl)pyridin-3-yl)-1-(isoquinolin-4-yl)-5-(trifluoromethyl)-1H-pyrazole-4-carboxamide] | 7.66 | 7.25 | 7.49 | 5.03 | ~7.34 | 6.20
